Legend:
rat liver cells = assay: Cholesterol synthesis inhibitory activity in rat liver cells ([14C]-acetic acid uptake in cholesterol); assay type: cell-based; details: concentration inhibiting 50% of [14C] acetic acid radioactivity uptake into cholesterol; SD rat liver cells; read-out: Cholesterol synthesis inhibitory action in rat liver cells IC50 (10^-6M)
Experimental: Liver cells were isolated from rat livers by the in situ collagenase perfusion method. Described specifically, a 6-week-old male SD rat was intraperitoneally administered with a 50 mg/ml pentobarbital sodium solution and thereby anesthetized. After ventrotomy and cannulation from the portal vein, the rat was sacrificed under exsanguination by the excision of the lower large vein. From the cannula, a Hanks solution (pH 7.2) containing 2% albumin, 0.5 mM ethyleneglycolbis(2-aminoethylether) tetraacetate (EGTA) and 10 mM HEPES and being free from a divalent calcium ion and a divalent magnesium ion was subjected to perfusion (flow rate: 0.5 ml/sec) for 5 minutes. The Hanks solution was then changed to another Hanks solution (pH 7.5) having 0.05% collagenase, 4 mM calcium chloride and 10 mM HEPES added thereto and perfusion was continued for further 15 to 20 minutes. After confirmation of the sufficient digestion by collagenase, the liver tissue was placed on a Petri dish, 30 ml of a Dulbeco's modified Eagle's (DEM) medium was added thereto and cells were dispersed by drawing through suction. A cell filter was employed to remove the undigested tissue. The resulting cell suspension was subjected to centrifugal separation at 600 rpm for 1 minute. A 30 ml of DME medium was added to the sediment to disperse the cells, followed by centrifugal separation at 600 rpm for 1 minute. After these washing procedures by centrifugation were repeated three times in total, the liver cell suspension was suspended in a DME medium containing 10% of lipoprotein deficient serum (LPDS). The resulting suspension was seeded on a commercially-available 6-well plate coated with collagen at a cell density of 1 x 10^6 cells per well, followed by incubation overnight in a CO2 incubator (5% CO2 gas, 37°C).
The uptake of [^14C]-acetic acid radioactivity in cholesterol was measured using the liver cells prepared in the above-described manner and the cholesterol synthesis inhibitory activity of the test medicament was evaluated.
Described specifically, the cell culture medium of the liver cells was replaced by a 25 mM HEPES-10% LPDS-DME medium (pH 7.4) containing the test medicament, followed by incubation for one hour in a CO2 incubator. Then, [^14C] sodium acetate was added to give the final concentration of 1 µCi/ml. After incubation for further one hour in the CO2 incubator, the cell culture medium was removed. The cells were washed three times with a phosphate buffered saline (pH 7.2) and then dissolved in 1 ml of a 0.1N aqueous sodium hydroxide solution. […] To the vial, 10 ml of Aquasol 2 was added and ^14C and ^3H radioactivities were counted by a liquid scintillation counter.
The cholesterol synthesis inhibitory activity of the test medicament was calculated in the below-described procedures. […]

squalene synthetase = biological target: T1, squalene synthetase (Homo sapiens, UniProt P37268); assay: Squalene synthetase inhibitory activity (HepG2 cell microsome fraction, [3H]farnesyl pyrophosphate incorporation into squalene); assay type: biochemical; details: HepG2 cell microsome preparation, 5 µM [3H]farnesyl pyrophosphate, 37°C for 20 minutes
T1 construct: 0.01 to 0.1 µg of the HepG2 cell microsome preparation; endogenous in cells; host or cells: HepG2 cells (microsome fraction)
T1 sequence (P37268 1-417): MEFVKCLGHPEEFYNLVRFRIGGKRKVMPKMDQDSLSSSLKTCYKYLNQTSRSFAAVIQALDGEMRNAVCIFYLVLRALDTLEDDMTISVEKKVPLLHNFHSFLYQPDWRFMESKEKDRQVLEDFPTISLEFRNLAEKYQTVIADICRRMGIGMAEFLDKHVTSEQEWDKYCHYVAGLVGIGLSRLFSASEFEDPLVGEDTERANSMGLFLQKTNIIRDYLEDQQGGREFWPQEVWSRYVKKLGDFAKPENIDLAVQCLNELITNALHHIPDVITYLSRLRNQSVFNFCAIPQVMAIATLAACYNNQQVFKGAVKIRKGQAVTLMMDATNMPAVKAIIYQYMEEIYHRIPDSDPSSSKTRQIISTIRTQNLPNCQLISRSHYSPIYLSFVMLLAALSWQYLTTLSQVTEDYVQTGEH
Experimental: As an enzyme source to measure squalane synthetase activity, we prepared a microsome fraction from a human hepatoma-derived cell line, HepG2 cells, according to the method described by Schechter et al. (Journal of Biological Chemistry, Vol. 267, pp.8628-8635, 1992).
Described specifically, HepG2 cells were first homogenized in the presence of a 10 mM N-2-hydroxyethylpiperazin-N'-2-ethanesulfonate (HEPES) buffer containing 0.3M sucrose, 1 mM dithiothreitol (DTT), 1 mM sodium ethylenediaminetetraacetate (EDT) and various protease inhibitors and adjusted to pH 7.4. The resulting mixture was subjected to centrifugal separation at 2,000 x g for 5 minutes and then 10,000 x g for 15 minutes. The protease inhibitors employed were phenylmethanesulfonyl fluoride (PMSF), leupeptin and aprotinin, which were added to give the final concentration of 1 mM, 10 µM and 5 µg/ml, respectively. The supernatant after centrifugation was centrifuged further at 105,000 xg for 60 minutes. The precipitate thus obtained was suspended in a 20 mM phosphate buffer (pH 7.4) containing 1 mM DTT, 1 mM EDTA and the above-described protease inhibitors and the resulting suspension was washed twice by centrifugation at 105,000 x g for 30 minutes. The precipitate was then suspended in a 20 mM phosphate buffer (pH 7.4) containing 1 mM DTT and 1 mM EDTA and the resulting suspension was similarly centrifuged. […]

| Compound | IC50 (rat liver cells) [nM] | IC50 (squalene synthetase) [nM] |
| --- | --- | --- |
| CN(CCCCCc1ccc2ccccc2c1)C(=O)[C@H](OCCCCNc1ccc2c(c1)CCC2)[C@@H](OCC(=O)O)C(=O)O [Example 48, (2R,3R)-2-Carboxymethoxy-3-[4-(5-indanylamino)butoxy]-3-[N-methyl-N-[5-(2-naphthyl)pentyl]carbamoyl]propionic acid] | 19 | – |
| C[C@H](NC(=O)C[C@@H](CC(=O)O)C(=O)O)[C@@H](Cc1ccc(Cl)c(Cl)c1)OC(=O)c1ccc2ccccc2c1 [Compound A, (2S)-2-[N-{(1S,2R)-3-(3,4-dichlorophenyl)-1-methyl-2-(2-naphthoyloxy)propyl}carbamoylmethyl] succinic acid, reference compound] | 320 | – |
| O=C(O)CO[C@@H](C(=O)O)[C@@H](OCCCCCc1ccc2ccccc2c1)C(=O)NCCCCCc1ccc2ccccc2c1 [Example 1, (2R,3R)-2-Carboxymethoxy-3-[N-[5-(2-naphthyl)pentyl]carbamoyl]-3-[5-(2-naphthyl)pentyloxy]propionic acid] | 150 | 0.3 |
| CC(C)(C)CN1C(=O)[C@@H](CC(=O)NCC(=O)O)O[C@H](c2ccccc2Cl)c2cc(Cl)ccc21 [Compound B, N-[(3R,5S)-7-chloro-5-(2-chlorophenyl)-1-neopentyl-2-oxo-1,2,3,5-tetrahydro-4,1-benzoxazepin-3-acetyl] aminoacetic acid, reference compound] | 390 | – |

From patent EP0949238A1, “SUBSTITUTED PROPIONYL DERIVATIVES” (DAIICHI PHARMACEUTICAL CO., LTD., priority 1996, dated 1998)
